Patent publication US20130331353A1, “CELL-PERMEABLE VARIANTS OF TREHALOSE AND METHODS FOR THE PROTECTION OF LIVING CELLS” (UNION COLLEGE, priority 2012, published 2013)

System: Jurkat cells
Test: Survival of Jurkat cells after cryopreservation (Trypan blue staining, automated cell counter)
Format: cell-based, human
Conditions: Jurkat cells incubated 24 hours (50-200 μM Compound 2, with or without 200 mM Tre), slowly frozen at −80° C., thawed quickly; FIG. 2
Protocol: Fully acetylated Tre (Compound 2, FIG. 1) has been synthesized, and incubated with Jurkat cells, a human T-cell line.
In accordance with a method of the present invention, mammalian cells are incubated with a solution containing cell-permeable variants of Tre. Preferably, the incubation time is at least 24 hours, more preferably, 24 to 96 hours, and most preferably about 48 hours. The cells are then frozen, preferably to about −80° C. or colder and thawed. Suitable freezing techniques include freezing the cells slowly, using for example a cryo 1° C. freezing container (“Mr. Frosty”), and freezing the cells quickly, for example, by plunging them into liquid nitrogen. Preferably, the frozen cells are thawed quickly, but they may also be thawed slowly. The % cell survival is measured, preferably using Trypan blue staining and an automated cell counter. […]
Jurkat cells were incubated for 24 hours with each of the following solutions: 0 mM Tre, 200 mM Tre, 50 μM Compound 2, 100 μM Compound 2, 200 μM Compound 2, 50 μM Compound 2+200 mM Tre, 100 μM Compound 2+200 mM Tre, and 200 μM Compound 2+200 mM Tre. The cells were then slowly frozen at −80° C. using a cryo 1° C. freezing container (“Mr. Frosty”) and thawed quickly. % cell survival was measured using Trypan blue staining and automated cell counter.

Structure (SMILES): CC(=O)OCC1OC(OC2OC(COC(C)=O)C(OC(C)=O)C(OC(C)=O)C2OC(C)=O)C(OC(C)=O)C(OC(C)=O)C1OC(C)=O (stereo not shown) [Compound 2, fully acetylated trehalose]
- survival after freezing and thawing: improved survival
